Converted amounts (≈) assume the structure as drawn. Where a name gives a salt, the structure may show the parent alone. Read-outs that look alike come from different tables or passages of the source.
Tests used:
Jurkat cells = test: (r) Cell cytotoxicity assay; format: cell-based, human; details: 24 hours
Procedure, shortened: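 Viability read by flow cytometry as the fraction of propidium iodide-negative cells (7.5 μg/mL PI, 15 min), relative to 1.0% DMSO control. Beforehand, 1×10^5 Jurkat cells in RPMI/10% FBS were treated 24 h at 37° C., 5% CO2 with test compound at final 20, 5 or 1 μg/mL.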

[1] = Pharmacokinetics and total colon distribution after oral administration; format: in vivo; details: male, C57BL/6, mouse, mice, oral 5 mg/kg, dosed compound measured
Description: Studies were conducted by Sai Life Sciences (Hinjewadi, Pune, India) to investigate the systemic pharmacokinetics and total colon tissue distribution of compounds of the invention. In particular, pharmacokinetic studies were carried out in male C57BL/6 mice following a single oral administration of the compound.

[2] = Solubility in fasted-state simulated colonic fluid (FaSSCoF); format: physicochemical; details: for pH 6.5 FaSSCoF Solubility, Run 2 / pH 6.5 FaSSCoF Solubility, Run 1: 24 h; for solubility thermodynamic at 24 h: 25 °C, pH 6.5, fassgf or other biorelevant, thermodynamic from solid
Description: The solubilities of compounds of the invention in FaSSCoF at pH 6.5 are determined using a modification of a previously-reported procedure (Vertzoni, M., et al. Pharm. Res. 2010, 27, 2187-2196). In place of the bile salt extract employed in the original procedure (which extract is no longer available), the modified procedure uses a mixture of sodium taurochlorate (0.15 g), glycocholic acid (0.15 g), ursodeoxycholic acid (0.05 g), cholic acid (0.05 g), and glycodeoxycholic acid (0.05 g). These five bile acids are ground together with a mortar and pestle to produce a fine white powder that is incorporated into the FaSSCoF, as outlined below.
Tris(hydroxymethyl)aminomethane (Tris; 0.275 g) and maleic acid (0.44 g) are dissolved in water (35 mL) to give a solution whose pH is adjusted to 6.5 by treatment with 0.5M NaOH (ca. 12 mL). The solution is then made up to 50 mL with water. A portion of this Tris/maleate buffer solution (ca. 25 mL) is added to a 0.5 L round-bottomed flask, before being treated with 0.00565 g of the bile acid mixture described above. Solutions of phosphatidylcholine (0.0111 g) in DCM (0.15 mL) and palmitic acid (0.0013 g) in DCM (0.15 mL) are added, then the organic solvent is evaporated off under reduced pressure at 40° C. until a clear solution, with no perceptible DCM odour, is achieved. The volume of the evaporated solution is adjusted to 50 mL by addition of the remainder of Tris/maleate buffer, then BSA (0.115 g) is added, before being dissolved by gentle agitation.
Test compounds are suspended in the pH 6.5 FaSSCoF medium to give a maximum final concentration of 2-10 mg/mL. The suspensions are equilibrated at 25° C. for 24 h, before being filtered through a glass fibre C filter. The filtrates are then diluted as appropriate for injection and quantification by HPLC with reference to a standard. Different volumes of the standard, diluted and undiluted sample solutions are injected and the solubilities are calculated using the peak areas determined by integration of the peak found at the same retention time as the principal peak in the standard injection.

[3] = Stability of pharmaceutical formulations; format: physicochemical; details: for Original Purity: 1 mg/mL solution, before storage; for Purity at week n = 1: 1 week; for Purity at week n = 2: 2 weeks; for Purity at week n = 4: 4 weeks
Description: The samples were sonicated to achieve clear solutions having the following properties: Osmolality (mOsm/kg): 310 (Na), 314 (HCl); pH: 7.00 (Na), 7.05 (HCl). 0.5 mL of the stock solutions were diluted to 1 mL with 20% DMSO in water & injected for purity analysis by HPLC. The remaining stock solutions were then split into aliquots of 0.5 mL in HPLC vials, and stored at various conditions in duplicate. Samples were stored at 5 and 25° C., before being analysed by HPLC at 1, 2 and 4 weeks. Separate samples were stored at 40° C. and analysed at 4 weeks.

[4] = blood, read-out: Mean blood concentration
[5] = total colon, read-out: total colon level

In the case of `COc1cc(Nc2cc(Oc3ccc(NC(=O)Nc4cc(C(C)(C)C)cc(NS(C)(=O)=O)c4OC)c4ccccc34)ccn2)ccc1C(=O)NCCOCCOCCOP(=O)(O)O` [Example 19, 2-(2-(2-(4-((4-((4-(3-(5-(tert-Butyl)-2-methoxy-3-(methylsulfonamido)phenyl)ureido)-naphthalen-1-yl)oxy)pyridin-2-yl)amino)-2-methoxybenzamido)ethoxy)ethoxy)ethyl dihydrogen phosphate], the “% Viability at 1 μg/mL” value (Jurkat cells; 1 μg/mL) is reported as 105.0%, the “% Viability at 5 μg/mL” value (Jurkat cells; 5 μg/mL) is reported as 106.0% and the “% Viability at 20 μg/mL” value (Jurkat cells; 20 μg/mL) is reported as 100.9%. The concentration at 0.5 h [1, 4] was 0 ng/mL, the concentration at 1 h [1, 4] was 0 ng/mL and the concentration at 2 h [1, 4] was 0 ng/mL. The concentration at 4 h [1, 4] was 0 ng/mL, the concentration at 6 h [1, 4] was 0 ng/mL and the concentration at 8 h [1, 4] was 0 ng/mL. It also gave a concentration at 12 h [1, 4] of 0 ng/mL, a concentration at 24 h [1, 4] of 0 ng/mL and a concentration at 0.5 h [1, 5] of 0 ng/g. For the same molecule, the concentration at 1 h [1, 5] was 0 ng/g, the concentration at 2 h [1, 5] was 0 ng/g and the concentration at 4 h [1, 5] was 0 ng/g. It also gave a concentration at 6 h [1, 5] of 0 ng/g, a concentration at 8 h [1, 5] of 0 ng/g and a concentration at 12 h [1, 5] of 0 ng/g. The concentration at 24 h [1, 5] was 0 ng/g.
For `COc1cc(Nc2cc(Oc3ccc(NC(=O)Nc4cc(C(C)(C)C)cc(NS(C)(=O)=O)c4OC)c4ccccc34)ccn2)ccc1C(=O)NCC(=O)O` [17(ar) (hydrochloride salt), 2-(4-((4-((4-(3-(5-(tert-Butyl)-2-methoxy-3-(methylsulfonamido)phenyl)ureido)naphthalen-1-yl)oxy)pyridin-2-yl)amino)-2-methoxybenzamido)acetic acid], the “pH 6.5 FaSSCoF Solubility, Run 2” value [2] was 0.198 mg/mL.
In the case of `COc1cc(Nc2cc(Oc3ccc(NC(=O)Nc4cc(C(C)(C)C)cc(NS(C)(=O)=O)c4OC)c4ccccc34)ccn2)ccc1P(C)(=O)O` [44 (sodium salt), (4-((4-((4-(3-(5-(tert-Butyl)-2-methoxy-3-(methylsulfonamido)phenyl)ureido)naphthalen-1-yl)oxy)pyridin-2-yl)amino)-2-methoxyphenyl)(methyl)phosphinic acid], the “pH 6.5 FaSSCoF Solubility, Run 1” value [2] is reported as >7.6 mg/mL and the “pH 6.5 FaSSCoF Solubility, Run 2” value [2] is reported as >5.5 mg/mL.
With `COc1cc(Nc2cc(Oc3ccc(NC(=O)Nc4cc(C(C)(C)C)cc(NS(C)(=O)=O)c4OC)c4ccccc34)ccn2)ccc1C(=O)NCCOCCOCCOP(=O)(O)O` [19 (sodium salt), 2-(2-(2-(4-((4-((4-(3-(5-(tert-Butyl)-2-methoxy-3-(methylsulfonamido)phenyl)ureido)-naphthalen-1-yl)oxy)pyridin-2-yl)amino)-2-methoxybenzamido)ethoxy)ethoxy)ethyl dihydrogen phosphate] the solubility thermodynamic at 24 h [2] was > 4700 µg/mL and the “pH 6.5 FaSSCoF Solubility, Run 2” value [2] was >4.7 mg/mL.
With `COc1cc(Nc2cc(Oc3ccc(NC(=O)Nc4cc(C(C)(C)C)cc(NS(C)(=O)=O)c4OC)c4ccccc34)ccn2)ccc1C(=O)O.Cl` [Example 1, hydrochloride salt] the “Original Purity” value ([3]; Sample 1) was 98.1%, the “Purity at week n = 1” value ([3]; Sample 1, 5° C.) was 98.2% and the “Purity at week n = 2” value ([3]; Sample 1, 5° C.) was 98.1%. The “Purity at week n = 4” value ([3]; Sample 1, 5° C.) was 97.9%, the “Purity at week n = 1” value ([3]; Sample 1, 25° C.) was 98.0% and the “Purity at week n = 2” value ([3]; Sample 1, 25° C.) was 97.7%. For the same molecule, the “Purity at week n = 4” value ([3]; Sample 1, 25° C.) was 97.2%, the “Purity at week n = 4” value ([3]; Sample 1, 40° C.) was 79.2% and the “Original Purity” value ([3]; Sample 2) was 98.1%. The “Purity at week n = 1” value ([3]; Sample 2, 5° C.) was 98.2%, the “Purity at week n = 2” value ([3]; Sample 2, 5° C.) was 98.0% and the “Purity at week n = 4” value ([3]; Sample 2, 5° C.) was 98.0%. The “Purity at week n = 1” value ([3]; Sample 2, 25° C.) was 98.0%, the “Purity at week n = 2” value ([3]; Sample 2, 25° C.) was 97.6% and the “Purity at week n = 4” value ([3]; Sample 2, 25° C.) was 97.4%. For the same molecule, the “Purity at week n = 4” value ([3]; Sample 2, 40° C.) was 80.4%.
For `COc1cc(Nc2cc(Oc3ccc(NC(=O)Nc4cc(C(C)(C)C)cc(NS(C)(=O)=O)c4OC)c4ccccc34)ccn2)ccc1P(C)(=O)O` [44 (ammonium salt), (4-((4-((4-(3-(5-(tert-Butyl)-2-methoxy-3-(methylsulfonamido)phenyl)ureido)naphthalen-1-yl)oxy)pyridin-2-yl)amino)-2-methoxyphenyl)(methyl)phosphinic acid], the “pH 6.5 FaSSCoF Solubility, Run 1” value [2] was >2.4 mg/mL and the “pH 6.5 FaSSCoF Solubility, Run 2” value [2] was >2.4 mg/mL.
For `COc1cc(Nc2cc(Oc3ccc(NC(=O)Nc4cc(C(C)(C)C)cc(NS(C)(=O)=O)c4OC)c4ccccc34)ccn2)ccc1C(=O)N1C[C@H](O)[C@@H](O)[C@H](O)[C@H]1CO` [17(ci), N-(5-(tert-Butyl)-2-methoxy-3-(3-(4-((2-((3-methoxy-4-((2R,3R,4R,5S)-3,4,5-trihydroxy-2-(hydroxymethyl)piperidine-1-carbonyl)phenyl)amino)pyridin-4-yl)oxy)naphthalen-1-yl)ureido)phenyl)methanesulfonamide], the solubility thermodynamic at 24 h [2] was 6 µg/mL (≈ 7.1 µM) and the “pH 6.5 FaSSCoF Solubility, Run 2” value [2] was 0.006 mg/mL.
With `COc1cc(Nc2cc(Oc3ccc(NC(=O)Nc4cc(C(C)(C)C)cc(NS(C)(=O)=O)c4OC)c4ccccc34)ccn2)ccc1C(=O)O` [1 (sodium salt), 4-((4-((4-(3-(5-(tert-Butyl)-2-methoxy-3-(methylsulfonamido)phenyl)ureido)naphthalen-1-yl)oxy)pyridin-2-yl)amino)-2-methoxybenzoic acid] the “pH 6.5 FaSSCoF Solubility, Run 2” value [2] was 0.032 mg/mL.
For `COc1cc(Nc2cc(Oc3ccc(NC(=O)Nc4cc(C(C)(C)C)cc(NS(C)(=O)=O)c4OC)c4ccccc34)ccn2)ccc1C(=O)O` [Example 1, sodium salt], the “Purity at week n = 4” value ([3]; Sample 1, 40° C.) was 76.0%.
For `COc1cc(Nc2cc(Oc3ccc(NC(=O)Nc4cc(C(C)(C)C)cc(NS(C)(=O)=O)c4OC)c4ccccc34)ccn2)ccc1C(=O)NCCC(=O)O` [17(ay) (hydrochloride salt), 3-(4-((4-((4-(3-(5-(tert-Butyl)-2-methoxy-3-(methylsulfonamido)phenyl)ureido)-naphthalen-1-yl)oxy)pyridin-2-yl)amino)-2-methoxybenzamido)propanoic acid], the “pH 6.5 FaSSCoF Solubility, Run 2” value [2] was 0.028 mg/mL.

From patent US10125100B2, “Kinase inhibitors” (Respivert Limited, priority 2014, dated 2018)
